In patent US12037340B2, “Pentacyclic derivatives as Zika virus inhibitors” (Gilead Sciences, Inc., priority 2021, dated 2024):

System: ZIKV
Assay: microbe, parasite or virus in culture
Format: cell-based, Zika virus
Settings: 48 hrs

Question: `COC(=O)N[C@H](C(=O)N1[C@@H](C)CC[C@H]1c1nc(Cl)c(-c2ccc3c(c2)COc2cc4c(ccc5nc([C@@H]6CC[C@H](C)N6C(=O)[C@@H](NC(=O)OC)C(C)(C)C(F)(F)F)[nH]c54)cc2-3)[nH]1)C(C)(C)C(F)(F)F` [Compound 24, methyl ((S)-1-((2S,5S)-2-(4-chloro-5-(2-((2S,5S)-5-methyl-1-((S)-4,4,4-trifluoro-2-((methoxycarbonyl)amino)-3,3-dimethylbutanoyl)pyrrolidin-2-yl)-1,11-dihydroisochromeno[4′,3′:6,7]naphtho[1,2-d]imidazol-9-yl)-1H-imidazol-2-yl)-5-methylpyrrolidin-1-yl)-4,4,4-trifluoro-3,3-dimethyl-1-oxobutan-2-yl)carbamate] was tested. Which EC50 (Zika virus, Huh-7) did it give?
Answer: 4.2 nM

Question: For `COC[C@H]1C[C@@H](c2nc(C#N)c(-c3ccc4c(c3)COc3cc5c(ccc6nc([C@@H]7CC[C@H](C)N7C(=O)[C@@H](NC(=O)OC)C(C)C)[nH]c65)cc3-4)[nH]2)N(C(=O)[C@@H](NC(=O)OC)C(C)C)C1` [Compound 13, methyl ((S)-1-((2S,5S)-2-(9-(4-cyano-2-((2S,4S)-1-((methoxycarbonyl)-L-valyl)-4-(methoxymethyl)pyrrolidin-2-yl)-1H-imidazol-5-yl)-1,11-dihydroisochromeno[4′,3′:6,7]naphtho[1,2-d]imidazol-2-yl)-5-methylpyrrolidin-1-yl)-3-methyl-1-oxobutan-2-yl)carbamate], which EC50 (Zika virus, Huh-7) is on record?
Answer: 51.6 nM

Question: With `COC(=O)N[C@H](C(=O)N1[C@@H](C)CC[C@H]1c1nc(C2CC2)c(-c2ccc3c(c2)COc2cc4c(ccc5nc([C@@H]6CC[C@H](C)N6C(=O)[C@@H](NC(=O)OC)C(C)C)[nH]c54)cc2-3)[nH]1)C(C)C` [Compound 38, methyl ((S)-1-((2S,5S)-2-(4-cyclopropyl-5-(2-((2S,5S)-1-((methoxycarbonyl)-L-valyl)-5-methylpyrrolidin-2-yl)-1,11-dihydroisochromeno[4′,3′:6,7]naphtho[1,2-d]imidazol-9-yl)-1H-imidazol-2-yl)-5-methylpyrrolidin-1-yl)-3-methyl-1-oxobutan-2-yl)carbamate] as the molecule, how does the EC50 (Zika virus, Huh-7) read?
Answer: 25.9 nM

Question: With `COC(=O)N[C@H](C(=O)N1[C@@H](C)CC[C@H]1c1nc(Cl)c(-c2ccc3c(c2)COc2cc4c(ccc5nc([C@@H]6CC[C@H](C)N6C(=O)[C@@H](NC(=O)OC)C6C[C@@H](C)O[C@H](C)C6)[nH]c54)cc2-3)[nH]1)C1CC(C)O[C@H](C)C1` (stereo in doubt) [Compound 9, methyl ((S)-2-((2S,5S)-2-(9-(4-chloro-2-((2S,5S)-1-((S)-2-((2R,6R)-2,6-dimethyltetrahydro-2H-pyran-4-yl)-2-((methoxycarbonyl)amino)acetyl)-5-methylpyrrolidin-2-yl)-1H-imidazol-5-yl)-1,11-dihydroisochromeno[4′,3′:6,7]naphtho[1,2-d]imidazol-2-yl)-5-methylpyrrolidin-1-yl)-1-((2R,6R)-2,6-dimethyltetrahydro-2H-pyran-4-yl)-2-oxoethyl)carbamate] as the molecule, how does the EC50 (Zika virus, Huh-7) read?
Answer: 48.1 nM

Question: With `COC(=O)N[C@H](C(=O)N1[C@@H](C)CC[C@H]1c1nc(F)c(-c2ccc3c(c2)COc2cc4c(ccc5nc([C@@H]6CC[C@H](C)N6C(=O)[C@@H](NC(=O)OC)C(C)C)[nH]c54)cc2-3)[nH]1)C(C)C` [Compound 33, methyl ((S)-1-((2S,5S)-2-(9-(4-fluoro-2-((2S,5S)-1-((methoxycarbonyl)-L-valyl)-5-methylpyrrolidin-2-yl)-1H-imidazol-5-yl)-1,11-dihydroisochromeno[4′,3′:6,7]naphtho[1,2-d]imidazol-2-yl)-5-methylpyrrolidin-1-yl)-3-methyl-1-oxobutan-2-yl)carbamate] as the molecule, how does the EC50 (Zika virus, Huh-7) read?
Answer: 77.3 nM

Question: `CC[C@H](C)[C@H](NC(=O)OC)C(=O)N1C[C@@H](COC)C[C@H]1c1nc(C2CC2)c(-c2ccc3c(c2)COc2cc4c(ccc5nc([C@@H]6CC[C@H](C)N6C(=O)[C@@H](NC(=O)OC)C(C)C)[nH]c54)cc2-3)[nH]1` [Compound 18, methyl ((S)-1-((2S,5S)-2-(9-(4-cyclopropyl-2-((2S,4S)-1-((methoxycarbonyl)-L-isoleucyl)-4-(methoxymethyl)pyrrolidin-2-yl)-1H-imidazol-5-yl)-1,11-dihydroisochromeno[4′,3′:6,7]naphtho[1,2-d]imidazol-2-yl)-5-methylpyrrolidin-1-yl)-3-methyl-1-oxobutan-2-yl)carbamate] was tested. Which EC50 (Zika virus, Huh-7) did it give?
Answer: 7.7 nM

Question: Which EC50 (Zika virus, Huh-7) does the source give for `CC[C@@H](C)[C@H](NC(=O)OC)C(=O)N1[C@@H](C)CC[C@H]1c1nc(C2CC2)c(-c2ccc3c(c2)COc2cc4c(ccc5nc([C@@H]6CC[C@H](C)N6C(=O)[C@@H](NC(=O)OC)[C@H](C)CC)[nH]c54)cc2-3)[nH]1` [Compound 40, methyl ((2S,3R)-1-((2S,5S)-2-(4-cyclopropyl-5-(2-((2S,5S)-1-((methoxycarbonyl)-L-alloisoleucyl)-5-methylpyrrolidin-2-yl)-1,11-dihydroisochromeno[4′,3′:6,7]naphtho[1,2-d]imidazol-9-yl)-1H-imidazol-2-yl)-5-methylpyrrolidin-1-yl)-3-methyl-1-oxopentan-2-yl)carbamate] here?
Answer: 25.1 nM

Question: `COC(=O)N[C@H](C(=O)N1CC2(CC2)C[C@H]1c1nc(Cl)c(-c2ccc3c(c2)COc2cc4c(ccc5nc([C@@H]6CC7(CC7)CN6C(=O)[C@@H](NC(=O)OC)C(C)(C)C(F)(F)F)[nH]c54)cc2-3)[nH]1)C(C)(C)C(F)(F)F` [Compound 4, methyl ((S)-1-((S)-6-(4-chloro-5-(2-((S)-5-((S)-4,4,4-trifluoro-2-((methoxycarbonyl)amino)-3,3-dimethylbutanoyl)-5-azaspiro[2.4]heptan-6-yl)-1,11-dihydroisochromeno[4′,3′:6,7]naphtho[1,2-d]imidazol-9-yl)-1H-imidazol-2-yl)-5-azaspiro[2.4]heptan-5-yl)-4,4,4-trilluoro-3,3-dimethyl-1-oxobutan-2-yl)carbamate] was tested. Which EC50 did it give?
Answer: 8.7 nM

Question: For `CC[C@H]1CC[C@@H](c2nc3ccc4cc5c(cc4c3[nH]2)OCc2cc(-c3[nH]c([C@@H]4CC[C@H](C)N4C(=O)[C@@H](NC(=O)OC)C(C)C)nc3Cl)ccc2-5)N1C(=O)[C@@H](NC(=O)OC)C1CCOCC1` [Compound 12, methyl ((S)-2-((2S,5S)-2-(9-(4-chloro-2-((2S,5S)-1-((methoxycarbonyl)-L-valyl)-5-methylpyrrolidin-2-yl)-1H-imidazol-5-yl)-1,11-dihydroisochromeno[4′,3′:6,7]naphtho[1,2-d]imidazol-2-yl)-5-ethylpyrrolidin-1-yl)-2-oxo-1-(tetrahydro-2H-pyran-4-yl)ethyl)carbamate], which EC50 (Zika virus, Huh-7) is on record?
Answer: 12.1 nM

Question: Which EC50 does the source give for `COC[C@H]1C[C@@H](c2nc(Cl)c(-c3ccc4c(c3)COc3cc5c(ccc6nc([C@@H]7CC[C@H](C)N7C(=O)[C@@H](NC(=O)OC)C(C)C)[nH]c65)cc3-4)[nH]2)N(C(=O)[C@@H](NC(=O)OC)C(C)(C)C(F)(F)F)C1` [Compound 20, methyl ((S)-1-((2S,5S)-2-(9-(4-chloro-2-((2S,4S)-4-(methoxymethyl)-1-((S)-4,4,4-trilluoro-2-((methoxycarbonyl)amino)-3,3-dimethylbutanoyl)pyrrolidin-2-yl)-1H-imidazol-5-yl)-1,11-dihydroisochromeno[4′,3′:6,7]naphtho[1,2-d]imidazol-2-yl)-5-methylpyrrolidin-1-yl)-3-methyl-1-oxobutan-2-yl)carbamate] here?
Answer: 5.4 nM

Question: `COC(=O)N[C@H](C(=O)N1CCC[C@H]1c1nc(Cl)c(-c2ccc3c(c2)COc2cc4c(ccc5nc([C@@H]6CCCN6C(=O)[C@@H](NC(=O)OC)C(C)C)[nH]c54)cc2-3)[nH]1)C(C)C` [Compound 26, methyl ((S)-1-((S)-2-(4-chloro-5-(2-((S)-1-((methoxycarbonyl)-L-valyl)pyrrolidin-2-yl)-1,11-dihydroisochromeno[4′,3′:6,7]naphtho[1,2-d]imidazol-9-yl)-1H-imidazol-2-yl)pyrrolidin-1-yl)-3-methyl-1-oxobutan-2-yl)carbamate] was tested. Which EC50 (Zika virus, Huh-7) did it give?
Answer: 85.4 nM

Question: Which EC50 does the source give for `COC(=O)N[C@H](C(=O)N1[C@@H](C)CC[C@H]1c1nc(C2CC2)c(-c2ccc3c(c2)COc2cc4c(ccc5nc([C@@H]6CC[C@H](C)N6C(=O)[C@@H](NC(=O)OC)C(C)(C)C(F)(F)F)[nH]c54)cc2-3)[nH]1)C(C)(C)C(F)(F)F` [Compound 41, methyl ((S)-1-((2S,5S)-2-(4-cyclopropyl-5-(2-((2S,5S)-5-methyl-1-((S)-4,4,4-trifluoro-2-((methoxycarbonyl)amino)-3,3-dimethylbutanoyl)pyrrolidin-2-yl)-1,11-dihydroisochromeno[4′,3′:6,7]naphtho[1,2-d]imidazol-9-yl)-1H-imidazol-2-yl)-5-methylpyrrolidin-1-yl)-4,4,4-trilluoro-3,3-dimethyl-1-oxobutan-2-yl)carbamate] here?
Answer: 4.8 nM

Question: For `CC[C@@H](C)[C@H](NC(=O)OC)C(=O)N1[C@@H](C)CC[C@H]1c1nc(C(C)C)c(-c2ccc3c(c2)COc2cc4c(ccc5nc([C@@H]6CC[C@H](C)N6C(=O)[C@@H](NC(=O)OC)[C@H](C)CC)[nH]c54)cc2-3)[nH]1` [Compound 46, methyl ((2S,3R)-1-((2S,5S)-2-(4-isopropyl-5-(2-((2S,5S)-1-((methoxycarbonyl)-L-alloisoleucyl)-5-methylpyrrolidin-2-yl)-1,11-dihydroisochromeno[4′,3′:6,7]naphtho[1,2-d]imidazol-9-yl)-1H-imidazol-2-yl)-5-methylpyrrolidin-1-yl)-3-methyl-1-oxopentan-2-yl)carbamate], which EC50 (Zika virus, Huh-7) is on record?
Answer: 26.7 nM

Question: How did the EC50 turn out when `COC(=O)N[C@H](C(=O)N1[C@H](c2nc(Cl)c(-c3ccc4c(c3)COc3cc5c(ccc6nc([C@@H]7C[C@@H]8CCC[C@@H]8N7C(=O)[C@@H](NC(=O)OC)C(C)C)[nH]c65)cc3-4)[nH]2)C[C@@H]2CCC[C@@H]21)C(C)C` [Compound 34, methyl ((S)-1-((2S,3aS,6aS)-2-(4-chloro-5-(2-((2S,3aS,6aS)-1-((methoxycarbonyl)-L-valyl)octahydrocyclopenta[b]pyrrol-2-yl)-1,11-dihydroisochromeno[4′,3′:6,7]naphtho[1,2-d]imidazol-9-yl)-1H-imidazol-2-yl)hexahydrocyclopenta[b]pyrrol-l(2H)-yl)-3-methyl-1-oxobutan-2-yl)carbamate] was run?
Answer: 30.6 nM
